# Measured values reported in patent US10941114B2, “Small molecule lipid II inhibitors” (University Of Maryland, Baltimore, priority 2015, dated 2021).
# Counter-ions that a name gives are not always drawn. Like-named read-outs stand apart in the source and are kept apart here.
# Key:
# [1] = in vivo; conditions: male, iv, […]
# [2] = biological target: CYP2D6 (Homo sapiens, UniProt P10635); test: P450 enzyme inhibition (IC50 fluorescence); format: in vitro ADME; conditions: substrate AMMC
# [3] = test system: HeLa cells; test: Cytotoxicity testing (CC50, MTS assay)
# [4] = Pharmacokinetic study in mice (plasma concentration by LC/MS/MS)
# [5] = biological target: CYP2C19 (Homo sapiens, UniProt P33261); test: P450 enzyme inhibition (IC50 fluorescence); format: in vitro ADME; conditions: substrate CEC: 3-cyano-7-ethoxycoumarin
# [6] = test system: Enterococcus faecalis; test: Antibacterial activity assay (MIC, broth dilution); format: cell-based; conditions: Enterococcus faecalis
# [7] = Plasma / serum stability (LC/MS/MS); format: in vitro ADME; conditions: 10 μg/mL, 50% serum
# [8] = test system: Staphylococcus aureus; test: Antibacterial activity assay (MIC, broth dilution); format: cell-based; set-up: S. aureus Killing / Bacterial Killing S. aureus: unit not given here; conditions: determined as in Example 1E (MIC)
# [9] = test system: Enterococcus faecium; test: Antibacterial activity assay (MIC, broth dilution); format: cell-based; set-up: Bacterial Killing E. faecium: unit: ug/mL; conditions: for MIC: Enterococcus faecium
# Method in brief: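 Broth dilution MIC per CLSI (M07-A10) in cation-adjusted Mueller Hinton broth with 10% brain-heart infusion; MIC is the lowest concentration preventing visible growth, in μg/mL. Some compounds were run by broth microdilution.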
# [10] = test system: Escherichia coli; test: Antibacterial activity assay (MIC, broth dilution); format: cell-based; conditions: determined as in Example 1E (MIC)
# [11] = Maximum Tolerated Dose (MTD) and in vivo toxicity at the MTD; conditions: mouse, in vivo, ip
# [12] = biological target: CYP3A4 (Homo sapiens, UniProt P08684); test: P450 enzyme inhibition (IC50 fluorescence); format: in vitro ADME
# [13] = CD1, mouse, in vivo
# [14] = IV administration, single dose […], mice (n=3)
# [15] = PO administration, single oral dose 5 mg/kg, mice (n=3)
# [16] = comparator values repeated from Table 4 (IV, […])
# Sequence of CYP3A4 (P08684 whole entry): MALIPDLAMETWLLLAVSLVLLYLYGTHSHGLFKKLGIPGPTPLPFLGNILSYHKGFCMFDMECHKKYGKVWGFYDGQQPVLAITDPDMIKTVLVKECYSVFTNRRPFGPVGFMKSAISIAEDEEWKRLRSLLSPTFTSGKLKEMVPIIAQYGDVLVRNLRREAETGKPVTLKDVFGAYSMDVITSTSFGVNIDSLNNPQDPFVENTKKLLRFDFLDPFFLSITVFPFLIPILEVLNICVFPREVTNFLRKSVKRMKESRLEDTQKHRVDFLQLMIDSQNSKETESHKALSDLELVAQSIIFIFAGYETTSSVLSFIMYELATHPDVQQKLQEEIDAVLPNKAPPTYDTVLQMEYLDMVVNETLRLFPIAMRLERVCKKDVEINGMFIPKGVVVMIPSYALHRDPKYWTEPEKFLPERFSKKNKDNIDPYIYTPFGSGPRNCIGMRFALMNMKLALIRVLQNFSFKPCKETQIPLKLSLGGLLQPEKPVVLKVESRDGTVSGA
# Sequence of CYP2C19 (P33261 whole entry): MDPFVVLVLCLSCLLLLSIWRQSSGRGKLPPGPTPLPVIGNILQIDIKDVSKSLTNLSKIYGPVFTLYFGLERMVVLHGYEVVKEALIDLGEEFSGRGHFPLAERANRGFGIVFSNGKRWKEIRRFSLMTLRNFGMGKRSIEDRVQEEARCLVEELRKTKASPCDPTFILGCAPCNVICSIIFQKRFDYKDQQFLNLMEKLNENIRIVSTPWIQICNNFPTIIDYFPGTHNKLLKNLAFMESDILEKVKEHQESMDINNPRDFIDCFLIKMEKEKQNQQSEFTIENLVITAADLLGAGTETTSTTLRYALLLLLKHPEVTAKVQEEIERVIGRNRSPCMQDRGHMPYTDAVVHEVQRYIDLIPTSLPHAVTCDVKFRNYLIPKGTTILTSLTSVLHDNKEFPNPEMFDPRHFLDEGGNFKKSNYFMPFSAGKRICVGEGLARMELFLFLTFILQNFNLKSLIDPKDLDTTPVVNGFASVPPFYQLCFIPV
# Sequence of CYP2D6 (P10635 whole entry): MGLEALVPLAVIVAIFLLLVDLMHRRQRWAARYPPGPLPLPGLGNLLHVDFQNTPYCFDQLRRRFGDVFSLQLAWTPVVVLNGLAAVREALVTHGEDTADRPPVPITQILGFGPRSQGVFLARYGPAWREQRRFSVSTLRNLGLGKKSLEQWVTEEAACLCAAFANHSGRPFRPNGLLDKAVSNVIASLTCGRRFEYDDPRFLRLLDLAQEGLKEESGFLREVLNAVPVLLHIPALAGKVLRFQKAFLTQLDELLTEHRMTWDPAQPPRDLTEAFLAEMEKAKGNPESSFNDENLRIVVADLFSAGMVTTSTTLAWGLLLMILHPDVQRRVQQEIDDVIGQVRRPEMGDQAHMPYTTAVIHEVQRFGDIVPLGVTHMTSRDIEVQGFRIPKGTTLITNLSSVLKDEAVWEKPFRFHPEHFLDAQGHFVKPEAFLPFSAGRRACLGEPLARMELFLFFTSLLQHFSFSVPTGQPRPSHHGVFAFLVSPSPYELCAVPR
compound,measurement,setting,value
"CN(C)c1ccc(/C=C/c2cc(-c3ccc(Br)cc3)cc(-c3ccc(Br)cc3)[o+]2)cc1 [Compound 6jc48-1, (E)-2,4-bis(4-bromophenyl)-6-(4-(dimethylamino)styryl)pyrylium boron tetrafluoride salt]",Vd,"[1]; CD1, mouse, plasma",~23 L/kg
same,Vd,"[1]; mouse, in vivo",22.8 ± 2.9 L/kg
same,IC50,[2],> 10 µM
same,reduction in cytotoxicity compared to the parent BAS00127538,[3],50 fold
same,AUClast/D,[4]; [14],536 ± 47 mg·h/mL
same,Cl_obs,[4]; [14],23.6 ± 1.7 mL/min/kg
same,T1/2,[4]; [14],13.3 ± 1.8 h
same,AUCInf,[4]; [15],90 ng·h/mL
same,AUClast,[4]; [15],46.9 ng·h/mL
same,Cmax,[4]; [15],19.1 ng/mL
same,Finf (inferred bioavailability),[4]; [15],2.54%
same,Flast (bioavailability at last time point),[4]; [15],1.9%
same,T1/2,[4]; [15],2.78 h
same,Cl—obs,[4]; [16],23.6 ± 1.7 mL/min/kg
same,T1/2,[4]; [16],13.3 ± 1.8 h
same,IC50,[5],> 10 µM
same,MIC,"[6]; MIC quoted with the macromolecular synthesis data (FIG. 11), strain not given, MMS run on E. faecalis EF1509, read-out: MIC",4 µg/mL
same,MIC,"[6]; cation-adjusted Mueller Hinton broth, 10% BHI, read-out: MIC E. faecalis 51299",4 µg/mL
same,MIC,"[6]; cation-adjusted Mueller Hinton broth, 10% BHI, read-out: MIC E. faecalis 51575",2 µg/mL
same,MIC,"[6]; cation-adjusted Mueller Hinton broth, 10% BHI, read-out: MIC E. faecalis C99707",2 µg/mL
same,MIC,"[6]; clinical isolates sensitive to linezolid and daptomycin, n = 5, read-out: MIC E. faecalis* clinical isolates",4 to 16 µg/mL
same,stability in serum,[7]; after 2 hours,stable after 2 hours in serum
same,compound remaining,[7]; after 19 hours,46%
same,Bacterial Killing S. aureus,[8],16
same,MIC,"[9]; cation-adjusted Mueller Hinton broth, 10% BHI, read-out: MIC E. faecium C110914",4 µg/mL
same,MIC,"[9]; cation-adjusted Mueller Hinton broth, 10% BHI, read-out: MIC E. faecium IH79985",8 µg/mL
same,MIC,"[9]; cation-adjusted Mueller Hinton broth, 10% BHI, read-out: MIC E. faecium S1559",2 µg/mL
same,MIC,"[9]; clinical isolates sensitive to linezolid and daptomycin, n = 5, read-out: MIC E. faecium* clinical isolates",4 to 16 µg/mL
same,Bacterial Killing E. faecium,[9]; determined as in Example 1E (MIC),4
same,Bacterial Killing E. coli,[10],>64
same,MTD,[11],≤ 100 mg/kg
same,IC50,"[12]; substrate BFC: 7-benzoyloxy-4-triflluoromethyl coumarin, read-out: P450 enzyme inhibition (IC50 fluorescence) CYP3A4/BFC",1.3 µM
same,IC50,"[12]; substrate DBF: dibenzylfluorescein, read-out: P450 enzyme inhibition (IC50 fluorescence) CYP3A4/DBF",> 10 µM
same,AUCextrap,"[13]; po, 5 mg/kg",48.6%
same,Vss_obs,"[13]; po, 5 mg/kg",1.75 L/kg
same,Volume of distribution at equilibrium (Vs),"[13]; male, iv, […]",22.8
same,Vss_obs,"[13]; male, iv, […]",22.8 ± 2.9 L/kg
